According to the kinase profiling compilation of Christmann-Franck et al. (2016):

Legend:
Assay in all cases: KINOMEscan competition binding
Settings in all cases: compound 10.0 µM
CLK1 (human) = CLK1 (human) (UniProt P49759)
STK35 (human) = STK35 (human) (UniProt Q8TDR2)
CDC42BPG (human) = CDC42BPG (human) (UniProt Q6DT37)
CAMKK2 (human) = CAMKK2 (human) (UniProt Q96RR4)
PIM1 (human) = PIM1 (human) (UniProt P11309)
[1] = target: JAK1 JH1 catalytic (human) (UniProt P23458)
TEK (human) = TEK (human) (UniProt Q02763)
NLK (human) = NLK (human) (UniProt Q9UBE8)
FRK (human) = FRK (human) (UniProt P42685)
MYLK (human) = MYLK (human) (UniProt Q15746)
PLK1 (human) = PLK1 (human) (UniProt P53350)
TAOK1 (human) = TAOK1 (human) (UniProt Q7L7X3)
CaMK1 (human) = CaMK1 (human) (UniProt Q14012)
MAPK6 (human) = MAPK6 (human) (UniProt Q16659)
Chain of MAPK6 (human) (Q16659 whole entry, looked up): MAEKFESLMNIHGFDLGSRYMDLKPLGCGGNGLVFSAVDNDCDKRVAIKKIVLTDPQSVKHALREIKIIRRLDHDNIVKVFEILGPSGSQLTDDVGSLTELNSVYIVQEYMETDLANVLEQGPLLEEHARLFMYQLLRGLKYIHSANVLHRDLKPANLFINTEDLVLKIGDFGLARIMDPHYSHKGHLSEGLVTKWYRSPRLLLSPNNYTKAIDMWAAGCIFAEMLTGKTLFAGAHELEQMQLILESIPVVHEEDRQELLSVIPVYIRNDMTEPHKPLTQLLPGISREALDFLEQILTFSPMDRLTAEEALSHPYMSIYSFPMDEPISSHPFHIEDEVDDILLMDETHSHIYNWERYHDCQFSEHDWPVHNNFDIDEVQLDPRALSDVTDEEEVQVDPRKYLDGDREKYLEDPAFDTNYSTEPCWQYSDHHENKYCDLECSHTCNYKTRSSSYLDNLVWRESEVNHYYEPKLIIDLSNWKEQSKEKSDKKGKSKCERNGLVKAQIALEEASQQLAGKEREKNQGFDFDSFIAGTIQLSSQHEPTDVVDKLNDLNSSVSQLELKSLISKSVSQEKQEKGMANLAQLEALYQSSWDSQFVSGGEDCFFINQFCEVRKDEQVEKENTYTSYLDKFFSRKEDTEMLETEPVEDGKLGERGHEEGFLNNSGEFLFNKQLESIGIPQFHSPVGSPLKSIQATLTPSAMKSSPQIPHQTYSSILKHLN

CDK8 (human) = CDK8 (human) (UniProt P49336)
Chain of CDK8 (human) (P49336 whole entry, looked up): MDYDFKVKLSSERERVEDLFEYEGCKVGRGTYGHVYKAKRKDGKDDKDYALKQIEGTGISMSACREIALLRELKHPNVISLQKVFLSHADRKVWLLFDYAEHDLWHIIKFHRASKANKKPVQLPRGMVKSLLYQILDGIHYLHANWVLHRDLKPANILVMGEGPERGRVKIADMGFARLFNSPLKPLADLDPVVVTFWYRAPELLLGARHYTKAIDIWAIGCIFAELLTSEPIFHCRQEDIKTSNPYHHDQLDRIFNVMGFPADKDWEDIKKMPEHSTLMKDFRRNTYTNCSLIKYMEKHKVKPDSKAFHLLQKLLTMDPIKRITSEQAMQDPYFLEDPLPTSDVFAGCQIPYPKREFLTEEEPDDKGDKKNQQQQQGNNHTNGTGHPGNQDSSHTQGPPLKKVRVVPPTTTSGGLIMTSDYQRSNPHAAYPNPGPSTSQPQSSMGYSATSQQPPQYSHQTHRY

DCLK1 (human) = DCLK1 (human) (UniProt O15075)
PAK2 (human) = PAK2 (human) (UniProt Q13177)
Chain of PAK2 (human) (Q13177 whole entry, looked up): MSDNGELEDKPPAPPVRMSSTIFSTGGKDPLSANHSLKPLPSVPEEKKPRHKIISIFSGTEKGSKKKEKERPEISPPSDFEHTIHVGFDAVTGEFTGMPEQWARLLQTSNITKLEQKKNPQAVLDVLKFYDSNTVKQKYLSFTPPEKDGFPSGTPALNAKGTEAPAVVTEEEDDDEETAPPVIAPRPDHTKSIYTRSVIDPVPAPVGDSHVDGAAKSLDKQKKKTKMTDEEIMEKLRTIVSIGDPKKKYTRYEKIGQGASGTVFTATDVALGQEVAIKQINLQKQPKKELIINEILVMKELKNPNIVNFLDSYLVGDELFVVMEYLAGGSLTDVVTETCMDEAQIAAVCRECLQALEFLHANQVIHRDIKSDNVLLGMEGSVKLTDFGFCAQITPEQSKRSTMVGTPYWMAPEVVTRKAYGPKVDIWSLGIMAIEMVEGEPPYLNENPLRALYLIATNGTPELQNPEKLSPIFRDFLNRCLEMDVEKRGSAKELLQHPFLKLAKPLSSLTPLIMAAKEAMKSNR

CHUK (human) = CHUK (human) (UniProt O15111)
IKBKB (human) = IKBKB (human) (UniProt O14920)
PIM3 (human) = PIM3 (human) (UniProt Q86V86)
CLK2 (human) = CLK2 (human) (UniProt P49760)
Chain of CLK2 (human) (P49760 whole entry, looked up): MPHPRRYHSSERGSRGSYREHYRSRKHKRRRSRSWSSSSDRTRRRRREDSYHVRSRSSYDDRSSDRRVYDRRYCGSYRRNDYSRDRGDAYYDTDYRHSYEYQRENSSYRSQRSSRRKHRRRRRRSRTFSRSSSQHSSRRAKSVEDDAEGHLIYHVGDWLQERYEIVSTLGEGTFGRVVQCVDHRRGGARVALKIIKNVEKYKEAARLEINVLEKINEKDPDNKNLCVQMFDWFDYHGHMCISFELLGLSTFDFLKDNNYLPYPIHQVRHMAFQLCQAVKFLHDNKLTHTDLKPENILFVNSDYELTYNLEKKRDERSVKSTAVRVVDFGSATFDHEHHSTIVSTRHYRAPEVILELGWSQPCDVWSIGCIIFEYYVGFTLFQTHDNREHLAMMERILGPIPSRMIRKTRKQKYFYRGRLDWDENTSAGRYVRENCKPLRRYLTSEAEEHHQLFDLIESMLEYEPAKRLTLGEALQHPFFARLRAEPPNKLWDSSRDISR

CHEK1 (human) = CHEK1 (human) (UniProt O14757)
PRKAA2 (human) = PRKAA2 (human) (UniProt P54646)
[2] = target: JAK3 JH1 catalytic (human) (UniProt P52333)
MAP4K1 (human) = MAP4K1 (human) (UniProt Q92918)
STK11 (human) = STK11 (human) (UniProt Q15831)
EPHB4 (human) = EPHB4 (human) (UniProt P54760)
CAMKK1 (human) = CAMKK1 (human) (UniProt Q8N5S9)
RPS6KA4 KD2 (human) = RPS6KA4 KD2 (human) (UniProt O75676)
Chain of RPS6KA4 KD2 (human) (O75676 whole entry, looked up): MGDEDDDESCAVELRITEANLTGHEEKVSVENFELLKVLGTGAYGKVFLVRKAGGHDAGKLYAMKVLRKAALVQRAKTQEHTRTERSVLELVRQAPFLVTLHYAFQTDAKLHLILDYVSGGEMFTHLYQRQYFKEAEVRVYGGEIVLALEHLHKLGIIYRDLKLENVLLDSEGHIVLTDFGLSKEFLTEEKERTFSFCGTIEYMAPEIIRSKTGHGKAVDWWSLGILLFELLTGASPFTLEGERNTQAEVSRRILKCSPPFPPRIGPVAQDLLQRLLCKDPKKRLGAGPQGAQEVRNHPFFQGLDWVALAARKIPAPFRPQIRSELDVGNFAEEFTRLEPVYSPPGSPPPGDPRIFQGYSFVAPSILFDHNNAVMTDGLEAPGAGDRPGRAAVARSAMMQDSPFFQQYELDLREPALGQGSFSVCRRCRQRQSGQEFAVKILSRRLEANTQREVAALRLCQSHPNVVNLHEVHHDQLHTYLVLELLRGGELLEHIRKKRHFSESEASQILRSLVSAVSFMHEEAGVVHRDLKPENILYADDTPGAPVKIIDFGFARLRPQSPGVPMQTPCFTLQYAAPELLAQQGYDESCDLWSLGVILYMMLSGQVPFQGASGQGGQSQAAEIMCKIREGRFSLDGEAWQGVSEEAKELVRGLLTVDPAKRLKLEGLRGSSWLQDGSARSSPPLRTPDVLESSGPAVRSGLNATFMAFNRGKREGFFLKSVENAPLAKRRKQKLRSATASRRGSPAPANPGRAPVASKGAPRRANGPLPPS

ERBB4 (human) = ERBB4 (human) (UniProt Q15303)
CAMK2A (human) = CAMK2A (human) (UniProt Q9UQM7)
FLT4 (human) = FLT4 (human) (UniProt P35916)
Chain of FLT4 (human) (P35916 whole entry, looked up): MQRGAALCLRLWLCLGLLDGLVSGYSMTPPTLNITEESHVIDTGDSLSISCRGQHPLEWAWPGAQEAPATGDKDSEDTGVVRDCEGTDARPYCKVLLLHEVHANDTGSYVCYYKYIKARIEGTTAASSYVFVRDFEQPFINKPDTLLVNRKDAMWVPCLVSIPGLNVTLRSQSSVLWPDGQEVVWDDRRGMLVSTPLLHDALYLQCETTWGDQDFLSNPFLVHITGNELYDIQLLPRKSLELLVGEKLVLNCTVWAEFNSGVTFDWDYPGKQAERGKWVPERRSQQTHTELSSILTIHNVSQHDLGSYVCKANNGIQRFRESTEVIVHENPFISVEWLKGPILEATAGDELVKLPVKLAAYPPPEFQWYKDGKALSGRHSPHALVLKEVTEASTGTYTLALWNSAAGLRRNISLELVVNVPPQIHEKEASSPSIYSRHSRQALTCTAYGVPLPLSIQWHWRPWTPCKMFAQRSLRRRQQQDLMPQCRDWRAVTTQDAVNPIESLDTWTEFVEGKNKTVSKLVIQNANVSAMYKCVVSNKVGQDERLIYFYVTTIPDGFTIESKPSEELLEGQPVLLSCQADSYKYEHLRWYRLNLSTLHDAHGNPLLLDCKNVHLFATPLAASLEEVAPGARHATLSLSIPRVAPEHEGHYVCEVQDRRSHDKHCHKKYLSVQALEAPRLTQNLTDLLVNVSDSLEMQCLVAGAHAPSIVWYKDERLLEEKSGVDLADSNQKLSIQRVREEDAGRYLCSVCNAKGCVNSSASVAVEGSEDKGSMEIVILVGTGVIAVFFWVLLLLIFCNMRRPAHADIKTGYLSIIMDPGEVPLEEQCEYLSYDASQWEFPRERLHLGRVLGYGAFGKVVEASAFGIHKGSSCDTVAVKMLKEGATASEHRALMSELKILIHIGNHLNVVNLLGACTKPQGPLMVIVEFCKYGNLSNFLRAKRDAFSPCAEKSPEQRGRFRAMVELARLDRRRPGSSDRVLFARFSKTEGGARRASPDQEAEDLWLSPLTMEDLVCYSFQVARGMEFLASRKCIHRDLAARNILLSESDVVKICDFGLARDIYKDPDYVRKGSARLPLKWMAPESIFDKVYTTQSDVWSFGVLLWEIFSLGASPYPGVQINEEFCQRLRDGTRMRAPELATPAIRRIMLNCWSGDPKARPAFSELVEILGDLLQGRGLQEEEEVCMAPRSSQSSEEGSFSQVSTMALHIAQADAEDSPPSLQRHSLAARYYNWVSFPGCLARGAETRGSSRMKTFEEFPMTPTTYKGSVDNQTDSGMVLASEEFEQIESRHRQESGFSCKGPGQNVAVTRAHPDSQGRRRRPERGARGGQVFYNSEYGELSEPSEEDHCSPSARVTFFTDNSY

NEK6 (human) = NEK6 (human) (UniProt Q9HC98)

Chain of PIM1 (human) (P11309 whole entry, looked up): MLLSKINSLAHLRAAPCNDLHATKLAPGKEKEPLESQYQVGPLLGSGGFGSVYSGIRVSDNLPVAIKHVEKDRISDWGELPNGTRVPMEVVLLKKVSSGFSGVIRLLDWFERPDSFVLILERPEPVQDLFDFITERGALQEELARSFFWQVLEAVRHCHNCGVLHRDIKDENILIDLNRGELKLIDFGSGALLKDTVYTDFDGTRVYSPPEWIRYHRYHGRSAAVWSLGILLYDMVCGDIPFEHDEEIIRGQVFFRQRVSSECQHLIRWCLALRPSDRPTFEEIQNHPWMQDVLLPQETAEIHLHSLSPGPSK

Structure (SMILES) | kinase still bound, per cent of control (CLK1 (human)) [%] | kinase still bound, per cent of control (CDC42BPG (human)) [%] | kinase still bound, per cent of control (CAMKK2 (human)) [%] | kinase still bound, per cent of control (PIM1 (human)) [%] | kinase still bound, per cent of control (TEK (human)) [%] | kinase still bound, per cent of control (NLK (human)) [%] | kinase still bound, per cent of control (FRK (human)) [%] | kinase still bound, per cent of control (MYLK (human)) [%] | kinase still bound, per cent of control (PLK1 (human)) [%] | kinase still bound, per cent of control (CaMK1 (human)) [%] | kinase still bound, per cent of control (MAPK6 (human)) [%] | kinase still bound, per cent of control (CDK8 (human)) [%] | kinase still bound, per cent of control (DCLK1 (human)) [%] | kinase still bound, per cent of control (PAK2 (human)) [%] | kinase still bound, per cent of control (PIM3 (human)) [%] | kinase still bound, per cent of control (CLK2 (human)) [%] | kinase still bound, per cent of control (CHEK1 (human)) [%] | kinase still bound, per cent of control (PRKAA2 (human)) [%] | kinase still bound, per cent of control [2] [%] | kinase still bound, per cent of control (MAP4K1 (human)) [%] | also measured
Cc1n[nH]c2ccc(-c3cncc(OC[C@@H](N)Cc4c[nH]c5ccccc45)c3)cc12 | 0 | 0.8 | 2 | 0.4 | 100 | 100 | 100 | 0.1 | 100 | 33 | 100 | 9.6 | 100 | 4.6 | 0.75 | 0.05 | 100 | 100 | 32 | 23 | kinase still bound, per cent of control (STK35 (human)): 100%; kinase still bound, per cent of control [1]: 100%; kinase still bound, per cent of control (TAOK1 (human)): 0.05%; kinase still bound, per cent of control (CHUK (human)): 1%; kinase still bound, per cent of control (IKBKB (human)): 34%; kinase still bound, per cent of control (STK11 (human)): 30%; kinase still bound, per cent of control (EPHB4 (human)): 100%; kinase still bound, per cent of control (CAMKK1 (human)): 2.4%; kinase still bound, per cent of control (RPS6KA4 KD2 (human)): 9.9%; kinase still bound, per cent of control (ERBB4 (human)): 100%; kinase still bound, per cent of control (CAMK2A (human)): 0.7%; kinase still bound, per cent of control (FLT4 (human)): 100%; kinase still bound, per cent of control (NEK6 (human)): 100%
CCN(CC)CCCCNc1ncc2cc(-c3cc(OC)cc(OC)c3)c(NC(=O)NC(C)(C)C)nc2n1 | 100 | 100 | 100 | 100 | 100 | 100 | 100 | 100 | 100 | 100 | 100 | 100 | 100 | 100 | 100 | 100 | 100 | 100 | 100 | 100 | kinase still bound, per cent of control (STK11 (human)): 100%; kinase still bound, per cent of control (EPHB4 (human)): 100%; kinase still bound, per cent of control (CAMKK1 (human)): 100%; kinase still bound, per cent of control (RPS6KA4 KD2 (human)): 100%; kinase still bound, per cent of control (ERBB4 (human)): 100%; kinase still bound, per cent of control (CAMK2A (human)): 100%; kinase still bound, per cent of control (FLT4 (human)): 6%; kinase still bound, per cent of control (NEK6 (human)): 100%
CNC(=O)c1ccc(Nc2cc(Nc3ccccc3S(=O)(=O)C(C)C)c3cc[nH]c3n2)nc1 | 0.15 | 100 | 100 | 100 | 1.8 | 100 | 33 | 100 | 19 | 100 | 100 | 100 | 100 | 100 | 100 | 4.7 | 100 | 8.9 | 1.8 | 7.9 | kinase still bound, per cent of control (STK35 (human)): 12%; kinase still bound, per cent of control [1]: 2%; kinase still bound, per cent of control (TAOK1 (human)): 0.65%; kinase still bound, per cent of control (CHUK (human)): 100%; kinase still bound, per cent of control (IKBKB (human)): 100%; kinase still bound, per cent of control (STK11 (human)): 18%; kinase still bound, per cent of control (EPHB4 (human)): 100%; kinase still bound, per cent of control (CAMKK1 (human)): 100%; kinase still bound, per cent of control (RPS6KA4 KD2 (human)): 100%; kinase still bound, per cent of control (ERBB4 (human)): 100%; kinase still bound, per cent of control (CAMK2A (human)): 100%; kinase still bound, per cent of control (FLT4 (human)): 29%; kinase still bound, per cent of control (NEK6 (human)): 100%
C=CC(=O)Nc1ccc(CN(C(=O)Nc2c(Cl)c(OC)cc(OC)c2Cl)c2cc(Nc3ccc(N4CCN(C)CC4)cc3)ncn2)cc1 | 100 | 100 | 100 | 100 | 0.95 | 100 | 0.65 | 100 | 100 | 100 | 100 | 100 | 100 | 100 | 100 | 100 | 100 | 100 | 0.15 | 16 | kinase still bound, per cent of control (STK35 (human)): 100%; kinase still bound, per cent of control [1]: 100%; kinase still bound, per cent of control (TAOK1 (human)): 0.8%; kinase still bound, per cent of control (CHUK (human)): 100%; kinase still bound, per cent of control (IKBKB (human)): 100%; kinase still bound, per cent of control (STK11 (human)): 100%; kinase still bound, per cent of control (EPHB4 (human)): 100%; kinase still bound, per cent of control (CAMKK1 (human)): 100%; kinase still bound, per cent of control (RPS6KA4 KD2 (human)): 100%; kinase still bound, per cent of control (ERBB4 (human)): 2.2%; kinase still bound, per cent of control (CAMK2A (human)): 100%; kinase still bound, per cent of control (FLT4 (human)): 0.1%; kinase still bound, per cent of control (NEK6 (human)): 100%
